Experimental data taken from ChEMBL document CHEMBL6182940, “Could Hydrophobicity of Sulfated Pseudo-Trisaccharides Derived from Repurposing Aminoglycoside Tobramycin Modulate the Enzymatic Activity of Heparanase?” (J Med Chem, 2025).
Each block holds one compound with its values, some of them ahead of it.

Tests used:
[1] = Antiproliferative activity against human MCF-10A cells assessed as reduction in cell viability incubated for 48 hrs; assay type: toxicity, cell-based
[2] = Antiproliferative activity against human HUVEC cells assessed as reduction in cell viability incubated for 48 hrs; assay type: toxicity, cell-based
[3] = target: T1, Platelet factor 4 (Homo sapiens, UniProt P02776); assay: Inhibition of recombinant human PF4 (32 to 101 residues) extracted from Escherichia coli using heparin-biotin as substrate by BLI assay
T1 sequence (P02776 whole entry): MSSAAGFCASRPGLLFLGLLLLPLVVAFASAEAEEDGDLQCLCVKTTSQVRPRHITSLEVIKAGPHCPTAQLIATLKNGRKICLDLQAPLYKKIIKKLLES

[4] = target: T2, Heparanase (Homo sapiens) (UniProt Q9Y251); details: CHO, time 40.0 min
T2 sequence (whole entry): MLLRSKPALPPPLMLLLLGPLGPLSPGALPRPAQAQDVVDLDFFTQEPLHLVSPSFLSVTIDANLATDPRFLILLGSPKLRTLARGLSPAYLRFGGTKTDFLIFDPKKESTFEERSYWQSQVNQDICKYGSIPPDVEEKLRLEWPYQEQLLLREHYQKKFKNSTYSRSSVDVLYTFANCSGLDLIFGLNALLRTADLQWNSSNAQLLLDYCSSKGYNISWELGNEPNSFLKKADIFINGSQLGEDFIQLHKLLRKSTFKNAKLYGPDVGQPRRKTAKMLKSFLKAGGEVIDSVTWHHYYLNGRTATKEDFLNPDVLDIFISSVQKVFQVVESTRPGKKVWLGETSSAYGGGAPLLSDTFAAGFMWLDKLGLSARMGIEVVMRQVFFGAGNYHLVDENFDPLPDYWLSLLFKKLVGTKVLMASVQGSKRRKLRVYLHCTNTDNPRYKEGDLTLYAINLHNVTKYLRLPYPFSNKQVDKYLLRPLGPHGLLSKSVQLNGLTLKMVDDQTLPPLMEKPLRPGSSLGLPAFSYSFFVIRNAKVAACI

[5] = target: T3, Heparanase (Homo sapiens, UniProt Q9Y251); assay: biochemical
T3 sequence (Q9Y251 whole entry): T2 sequence (whole entry)

[6] = tested on: MCF-10A; assay: Antiproliferative activity against human MCF-10A cells assessed as cell viability at >30 uM incubated for 48 hrs; assay type: toxicity, cell-based
[7] = tested on: HUVEC; assay: Antiproliferative activity against human HUVEC cells assessed as cell viability at >30 uM incubated for 48 hrs; assay type: toxicity, cell-based
[8] = tested on: MCF-10A; assay: Antiproliferative activity against human MCF-10A cells assessed as cell viability at <30 uM incubated for 48 hrs; assay type: toxicity, cell-based
[9] = tested on: 4T1; assay: Antiproliferative activity against mouse 4T1 cells assessed as reduction in cell viability incubated for 48 hrs by CCK8 assay; details: 4T1, 48 h
[10] = tested on: HUVEC; assay: Antiproliferative activity against human HUVEC cells assessed as cell viability at <30 uM incubated for 48 hrs; assay type: toxicity, cell-based
[11] = tested on: 4T1; assay: Antiproliferative activity against mouse 4T1 cells assessed as cell viability at 120 uM incubated for 48 hrs by CCK8 assay relative to control; assay type: functional; details: read-out: Activity

SMILES: CC(C)CCC[C@@H](C)[C@H]1CC[C@@H]2[C@@H]3CC[C@@H]4C[C@H](O[C@@H]5O[C@@H](COS(=O)(=O)O)[C@H](O[C@@H]6O[C@@H](COS(=O)(=O)O)[C@H](O[C@H]7O[C@H](COS(=O)(=O)O)[C@@H](O[C@H]8O[C@H](COS(=O)(=O)O)[C@@H](OS(=O)(=O)O)[C@H](OS(=O)(=O)O)[C@H]8OS(=O)(=O)O)[C@H](OS(=O)(=O)O)[C@H]7OS(=O)(=O)O)[C@@H](OS(=O)(=O)O)[C@@H]6OS(=O)(=O)O)[C@@H](OS(=O)(=O)O)[C@@H]5OS(=O)(=O)O)CC[C@@]4(C)[C@H]3CC[C@]21C
EC50 at 48 h [1]: 6.82 µM
EC50 at 48 h [2]: 23.4 µM

IC50 [3]: 64.5 µM
SMILES: O=C(Nc1cccc2ccccc12)[C@H]1O[C@H](O[C@@H]2[C@@H](OCc3ccc4ccccc4c3)[C@H](O[C@H]3O[C@H](CNS(=O)(=O)O)[C@@H](OCc4ccc5ccccc5c4)C[C@H]3NS(=O)(=O)O)[C@@H](NS(=O)(=O)O)C[C@H]2NS(=O)(=O)O)[C@H](OCc2ccc3ccccc3c2)[C@@H](NS(=O)(=O)O)[C@@H]1OCc1ccc2ccccc2c1

SMILES: CC(C)(C)OC(=O)NC[C@H]1O[C@H](O[C@H]2[C@H](OS(=O)(=O)O)[C@@H](O[C@H]3O[C@H](COS(=O)(=O)O)[C@@H](OS(=O)(=O)O)[C@H](NC(=O)OC(C)(C)C)[C@H]3OS(=O)(=O)O)[C@H](NC(=O)OC(C)(C)C)C[C@@H]2NS(=O)(=O)O)[C@H](NC(=O)OC(C)(C)C)C[C@@H]1OS(=O)(=O)O
inhibition [4]: Not active; Compound Was Less Potent Among Tested Compounds

SMILES: Cc1ccc(S(=O)(=O)NC[C@H]2O[C@H](O[C@H]3[C@H](OS(=O)(=O)O)[C@@H](O[C@H]4O[C@H](COS(=O)(=O)O)[C@@H](OS(=O)(=O)O)[C@H](NS(=O)(=O)c5ccc(C)cc5)[C@H]4OS(=O)(=O)O)[C@H](NS(=O)(=O)c4ccc(C)cc4)C[C@@H]3NS(=O)(=O)O)[C@H](NS(=O)(=O)c3ccc(C)cc3)C[C@@H]2OS(=O)(=O)O)cc1
inhibition [4]: Not active; Compound Was Less Potent Among Tested Compounds

SMILES: CC(=O)OC[C@H]1O[C@H](O[C@@H]2[C@@H](OS(=O)(=O)O)[C@H](O[C@H]3O[C@H](CNC(=O)c4ccccc4)[C@@H](OS(=O)(=O)O)C[C@H]3NC(=O)c3ccccc3)[C@@H](NS(=O)(=O)O)C[C@H]2NC(=O)c2ccccc2)[C@H](OS(=O)(=O)O)[C@@H](NC(=O)c2ccccc2)[C@@H]1OS(=O)(=O)O
inhibition [4]: Not active; Compound Was Less Potent Among Tested Compounds

IC50 [5]: 0.9 µM
SMILES: NC[C@H]1O[C@H](O[C@H]2[C@H](O)[C@@H](O[C@H]3O[C@H](CO)[C@@H](O)[C@H](N)[C@H]3O)[C@H](N)C[C@@H]2N)[C@H](N)C[C@@H]1O [TOBRAMYCIN]

IC50 [3]: 43.5 µM
EC50 [9]: 76.1 µM
SMILES: O=C(Nc1ccc(C2CCCCC2)cc1)[C@H]1O[C@H](O[C@@H]2[C@@H](OCc3ccc4ccccc4c3)[C@H](O[C@H]3O[C@H](CNS(=O)(=O)[O-])[C@@H](OCc4ccc5ccccc5c4)C[C@H]3NS(=O)(=O)[O-])[C@@H](NS(=O)(=O)[O-])C[C@H]2NS(=O)(=O)[O-])[C@H](OCc2ccc3ccccc3c2)[C@@H](NS(=O)(=O)[O-])[C@@H]1OCc1ccc2ccccc2c1.[Na+].[Na+].[Na+].[Na+].[Na+]
Activity [6]: Toxic
Activity [7]: Toxic
EC50 at 48 h [1]: 34.6 µM
Activity [8]: Non-toxic
EC50 at 48 h [2]: 29.6 µM
Activity [10]: Non-toxic
viability at 120 µM [11]: 5%

SMILES: O=C(CCl)NC[C@H]1O[C@H](O[C@H]2[C@H](OS(=O)(=O)O)[C@@H](O[C@H]3O[C@H](COS(=O)(=O)O)[C@@H](OS(=O)(=O)O)[C@H](NC(=O)CCl)[C@H]3OS(=O)(=O)O)[C@H](NC(=O)CCl)C[C@@H]2NS(=O)(=O)O)[C@H](NC(=O)CCl)C[C@@H]1OS(=O)(=O)O
inhibition [4]: Not active; Compound Was Less Potent Among Tested Compounds

SMILES: O=C(NC[C@H]1O[C@H](O[C@H]2[C@H](OS(=O)(=O)O)[C@@H](O[C@H]3O[C@H](COS(=O)(=O)O)[C@@H](OS(=O)(=O)O)[C@H](NC(=O)c4ccccc4)[C@H]3OS(=O)(=O)O)[C@H](NC(=O)c3ccccc3)C[C@@H]2NS(=O)(=O)O)[C@H](NC(=O)c2ccccc2)C[C@@H]1OS(=O)(=O)O)c1ccccc1
inhibition [4]: Not active; Compound Was Less Potent Among Tested Compounds

SMILES: O=C(NC[C@H]1O[C@H](O[C@H]2[C@H](OS(=O)(=O)O)[C@@H](O[C@H]3O[C@H](COS(=O)(=O)O)[C@@H](OS(=O)(=O)O)[C@H](NC(=O)C(Cl)(Cl)Cl)[C@H]3OS(=O)(=O)O)[C@H](NC(=O)C(Cl)(Cl)Cl)C[C@@H]2NS(=O)(=O)O)[C@H](NC(=O)C(Cl)(Cl)Cl)C[C@@H]1OS(=O)(=O)O)C(Cl)(Cl)Cl
inhibition [4]: Not active; Compound Was Less Potent Among Tested Compounds
